In PubChem BioAssay (NCI):
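Step 1: Grow cells in 96-well plates. Step 2: Expose to compound for 48 hours at 5 concentrations. Step 3: Interpolate endpoints linearly; if unreached, use highest concentration. GI50 is the concentration that inhibits growth by half. Definition used: TGI = concentration required for complete inhibition of growth.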

What was measured:
Assay in all cases: growth of human tumour cells (NCI), 48 h
[1] = test system: M14 melanoma
[2] = test system: SF-268 CNS
[3] = test system: HT29 colon
[4] = test system: TK-10 renal
[5] = test system: HCT-116 colon
[6] = test system: MOLT-4 leukemia
[7] = test system: OVCAR-5 ovarian
[8] = test system: SN12C renal
[9] = test system: 786-0 renal
[10] = test system: A498 renal
[11] = test system: SW-620 colon
[12] = test system: SK-MEL-5 melanoma
[13] = test system: SR leukemia
[14] = test system: SK-MEL-28 melanoma
[15] = test system: DU-145 prostate
[16] = test system: HOP-62 NSCLC
[17] = test system: T-47D breast
[18] = test system: SK-OV-3 ovarian
[19] = test system: SNB-19 CNS
[20] = test system: UACC-62 melanoma
[21] = test system: NCI-H226 lung
[22] = test system: SF-539 CNS
[23] = test system: SNB-75 CNS
[24] = test system: MDA-MB-231 breast
[25] = test system: HL-60(TB) leukemia
[26] = test system: MCF7 breast
[27] = test system: OVCAR-4 ovarian
[28] = test system: BT-549 breast
[29] = test system: CAKI-1 renal
[30] = test system: RPMI-8226 leukemia
[31] = test system: LOX IMVI melanoma
[32] = test system: PC-3 prostate
[33] = test system: COLO 205 colon
[34] = test system: A549 NSCLC
[35] = test system: RXF 393 renal
[36] = test system: OVCAR-8 ovarian
[37] = test system: KM12 colon
[38] = test system: NCI-H522 lung
[39] = test system: SF-295 CNS
[40] = test system: UACC-257 melanoma
[41] = test system: UO-31 renal
[42] = test system: NCI-H460 lung
[43] = test system: HCT-15 colon
[44] = test system: MALME-3M melanoma
[45] = test system: CCRF-CEM leukemia
[46] = test system: NCI/ADR-RES ovarian
[47] = test system: NCI-H23 lung
[48] = test system: HCC-2998 colon
[49] = test system: K-562 leukemia
[50] = test system: MDA-MB-435
[51] = test system: U251 CNS
[52] = test system: HS 578T breast
[53] = test system: HOP-92 NSCLC
[54] = test system: ACHN renal
[55] = test system: IGROV1 ovarian
[56] = test system: OVCAR-3 ovarian

CCCCCCC(O)(c1ccc(F)cc1)C(CN1CCOCC1)c1ccccc1 (configuration not stated)
GI50 [1]: 16.3 µM | TGI [1]: 34.4 µM | GI50 [2]: 13 µM | TGI [2]: 28.4 µM | GI50 [3]: 5.37 µM | TGI [3]: 19.9 µM | GI50 [4]: 18 µM | TGI [4]: 32.8 µM | GI50 [5]: 8.53 µM | TGI [5]: 24.6 µM | GI50 [6]: 13.3 µM | TGI [6]: 32.4 µM | GI50 [7]: 13.8 µM | TGI [7]: 26.8 µM | GI50 [8]: 12.7 µM | TGI [8]: 28.3 µM | GI50 [9]: 13.2 µM | TGI [9]: 27.3 µM | GI50 [10]: 11.6 µM | TGI [10]: 30 µM | GI50 [11]: 12.2 µM | TGI [11]: 26.3 µM | GI50 [12]: 4.64 µM | TGI [12]: 18.6 µM | GI50 [13]: 11.9 µM | TGI [13]: 29.8 µM | GI50 [14]: 16.4 µM | TGI [14]: 34.5 µM | GI50 [15]: 14.6 µM | TGI [15]: 28.7 µM | GI50 [16]: 19.2 µM | TGI [16]: 35.3 µM | GI50 [17]: 10.4 µM | TGI [17]: 23.8 µM | GI50 [18]: 16 µM | TGI [18]: 36.7 µM | GI50 [19]: 12.8 µM | TGI [19]: 27.5 µM | GI50 [20]: 11.4 µM | TGI [20]: 27.7 µM | GI50 [21]: 8.63 µM | TGI [21]: 24.8 µM | GI50 [22]: 15.6 µM | TGI [22]: 29.6 µM | GI50 [23]: 14.4 µM | TGI [23]: 35.9 µM | GI50 [24]: 11.4 µM | TGI [24]: 26.5 µM | GI50 [25]: 12 µM | TGI [25]: 31.6 µM | GI50 [26]: 11.7 µM | TGI [26]: 24.4 µM | GI50 [27]: 14.2 µM | TGI [27]: 29.8 µM | GI50 [28]: 14.7 µM | TGI [28]: 29.6 µM | GI50 [29]: 12.5 µM | TGI [29]: 28.9 µM | GI50 [30]: 5.48 µM | TGI [30]: 21.7 µM | GI50 [31]: 16.2 µM | TGI [31]: 31.1 µM | GI50 [32]: 5.24 µM | TGI [32]: 21.3 µM | GI50 [33]: 12.1 µM | TGI [33]: 27 µM | GI50 [34]: 11.7 µM | TGI [34]: 29.3 µM | GI50 [35]: 5.26 µM | TGI [35]: 19 µM | GI50 [36]: 14.2 µM | TGI [36]: 34.8 µM | GI50 [37]: 12.4 µM | TGI [37]: 28.4 µM | GI50 [38]: 8.14 µM | TGI [38]: 22.3 µM | GI50 [39]: 15.3 µM | TGI [39]: 31.5 µM | GI50 [40]: 10.3 µM | TGI [40]: 27.3 µM | GI50 [41]: 11.6 µM | TGI [41]: 26.4 µM | GI50 [42]: 13.4 µM | TGI [42]: 29.3 µM | GI50 [43]: 11.5 µM | TGI [43]: 24.7 µM | GI50 [44]: 15 µM | TGI [44]: 33.4 µM | GI50 [45]: 13.9 µM | TGI [45]: 32.9 µM | GI50 [46]: 12.1 µM | TGI [46]: 34.2 µM | GI50 [47]: 11.1 µM | TGI [47]: 30.6 µM | GI50 [48]: 13.8 µM | TGI [48]: 29.3 µM | GI50 [49]: 14.9 µM | TGI [49]: 37.7 µM | GI50 [50]: 15.8 µM | TGI [50]: 41.7 µM | GI50 [51]: 12.2 µM | TGI [51]: 25.1 µM | GI50 [52]: 14.8 µM | TGI [52]: 40 µM | GI50 [53]: 12.8 µM | TGI [53]: 26.1 µM | GI50 [54]: 12.3 µM | TGI [54]: 24.9 µM | GI50 [55]: 12.8 µM | TGI [55]: 41.9 µM | GI50 [56]: 12.5 µM | TGI [56]: 25.4 µM
